The values below come from US9102648B1, “Bioavailable diacylhydrazine ligands for modulating the expression of exogenous genes via an ecdysone receptor complex” (Intrexon Corporation, priority 2003, dated 2015).

This experiment relates to mutated ecdysone receptor-based gene switch. The experiment can be described thus: In vivo SEAP induction, ligand by IP injection. Details: species or system C57BL/6 mouse. As to conditions: mouse serum. In short, it runs like this:
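Gene switch plasmids (receptor under CMV promoter) electroporated into quadriceps of C57BL/6 mice; 3 days later ligand given IP at 2.6 μmol or 26 nmol in 50 μL DMSO per mouse. Serum SEAP measured by chemiluminescence 2-11 days after dosing, averaged over four animals, expressed as % of GS™-E ligand induction.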

Turning to `CCc1ccc(C(=O)NN(C(=O)c2cc(C)cc(C)c2)C(C)C(C)(C)C)cc1` (stereo not drawn) [RG-103451], under “IP 2.6 μmol ligand 3 days after electroporation, day 2 after ligand”, the “Secreted Alkaline Phosphatase (percentage of GS ™-E ligand induction) Day 2” value is on record as 76 percentage of GS ™-E ligand induction. In addition, for the setting “IP 2.6 μmol ligand, day 3 after ligand”, the “Secreted Alkaline Phosphatase (percentage of GS ™-E ligand induction) Day 3” value was 73 percentage of GS ™-E ligand induction. Moreover, the “Secreted Alkaline Phosphatase (percentage of GS ™-E ligand induction) Day 11” value (IP 2.6 μmol ligand, day 11 after ligand) is given as 371 percentage of GS ™-E ligand induction.
